Assays:
[1] = system: MCF-7 cells; assay: Breast cancer cell viability assay (CellTiter-Glo, 5 days); assay type: cell-based; settings: 5 days' compound exposure; for IC50: Homo sapiens, MCF7, 120 h
In short: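 Eleven-point semilog compound series, final 0.3-0.000003 μM, added to overnight-adhered MCF-7 cells (320/well; RPMI, 10% FBS, 20 mM HEPES) for 5 days. Viability read by CellTiter-Glo luminescence, background from medium without cells subtracted, expressed relative to untreated cells.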

[2] = target: T1, ER-α in MCF-7 cells (Homo sapiens, UniProt P03372); assay: Breast cancer cell ER-α in cell western assay (SP1); assay type: cell-based; parameters: endogenous in cells; host or cells: MCF-7; settings: 4 or 24 hr post compound addition; for Emax: MCF7, SP1 antibody, read-out: ER-α In Cell Western Assay (SP1) Max Response; for DC50: SP1 antibody, read-out: ER-α In Cell Western Assay (SP1) IC50
T1 sequence (P03372 1-595): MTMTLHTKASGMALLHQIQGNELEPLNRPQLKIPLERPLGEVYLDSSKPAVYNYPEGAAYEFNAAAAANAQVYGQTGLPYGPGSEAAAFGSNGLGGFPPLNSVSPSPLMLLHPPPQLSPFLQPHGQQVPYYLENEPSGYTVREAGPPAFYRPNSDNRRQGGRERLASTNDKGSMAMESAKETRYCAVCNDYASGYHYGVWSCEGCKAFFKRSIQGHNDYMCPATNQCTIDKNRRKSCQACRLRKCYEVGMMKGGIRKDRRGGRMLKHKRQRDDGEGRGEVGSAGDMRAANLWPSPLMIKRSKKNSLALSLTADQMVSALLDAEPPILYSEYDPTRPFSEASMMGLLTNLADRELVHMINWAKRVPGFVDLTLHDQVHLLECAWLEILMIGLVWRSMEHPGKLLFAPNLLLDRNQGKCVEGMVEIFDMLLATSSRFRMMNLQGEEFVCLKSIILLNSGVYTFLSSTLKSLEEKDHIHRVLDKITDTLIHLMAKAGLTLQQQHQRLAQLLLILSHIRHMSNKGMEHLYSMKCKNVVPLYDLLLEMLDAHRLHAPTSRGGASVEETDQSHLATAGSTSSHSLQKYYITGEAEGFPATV
In short: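 Fixed cells were immunostained with SP1 anti-ER antibody; ER signal (800 nm) was normalized to DRAQ5 DNA signal (700 nm) and expressed as % of untreated cells.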

Row | Compound | IC50 [1] [nM] | Emax [2] [%] | DC50 [2] [nM] | MCF7 Viability Assay Max Response [1]
1 | Cc1cscc1/C(=C(\c1ccc(/C=C/C(=O)O)cc1)c1ccc2scnc2c1)C1CCC1 [Compound 279, (E)-3-(4-((E)-1-(Benzo[d]thiazol-5-yl)-2-cyclobutyl-2-(4-methylthiophen-3-yl)vinyl)phenyl)acrylic acid] | ≤ 100 | ≥ 40 | ≤ 100 | ++ (++ = a single % value ≧ 40%)
2 | CC/C(=C(/c1ccc(/C=C/C(=O)O)cc1)c1ccc2cccnc2c1)c1ccc(F)cc1Cl [Compound 289, (E)-3-(4-((E)-2-(2-Chloro-4-fluorophenyl)-1-(quinolin-7-yl)but-1-en-1-yl)phenyl)acrylic acid] | > 100 | ≥ 40 | ≤ 100 | ++ (++ = a single % value ≧ 40%)
3 | CC/C(=C(/c1ccc(/C=C/C(=O)O)cc1)c1ccc2nccn2c1)c1ccccc1 [Compound 126, (E)-3-(4-((E)-1-(Imidazo[1,2-a]pyridin-6-yl)-2-phenylbut-1-en-1-yl)phenyl)acrylic acid] | > 100 | ≥ 40 | ≤ 100 | ++ (++ = a single % value ≧ 40%)
4 | CC/C(=C(/c1ccc(/C=C/C(=O)O)cc1)c1ccc2[nH]ncc2c1)c1ccncc1C [Compound 226, (E)-3-(4-((E)-1-(1H-Indazol-5-yl)-2-(3-methylpyridin-4-yl)but-1-en-1-yl)phenyl)acrylic acid] | ≤ 100 | ≥ 40 |  | ++ (++ = a single % value ≧ 40%)
5 | CC/C(=C(/c1ccc(/C=C/C(=O)O)cc1)c1cc(F)cc2[nH]ncc12)c1ccccc1 [Compound 86, (E)-3-(4-((E)-1-(6-Fluoro-1H-indazol-4-yl)-2-phenylbut-1-en-1-yl)phenyl)acrylic acid] | ≤ 100 | ≥ 40 | ≤ 100 | ++ (++ = a single % value ≧ 40%)
6 | CC/C(=C(/c1ccc(/C=C/C(=O)O)cc1)c1ccc2[nH]ncc2c1)c1ccc(Oc2cccnc2)cc1 [Compound 292, (E)-3-(4-((E)-1-(1H-Indazol-5-yl)-2-(4-(pyridin-3-yloxy)phenyl)but-1-en-1-yl)phenyl)acrylic acid] | ≤ 100 | ≥ 40 | ≤ 100 | ++ (++ = a single % value ≧ 40%)
7 | CC/C(=C(/c1ccc(/C=C/C(=O)O)cc1)c1ccc2[nH]ncc2c1)c1ccncc1Cl [Compound 204, (E)-3-(4-((E)-2-(3-Chloropyridin-4-yl)-1-(1H-indazol-5-yl)but-1-en-1-yl)phenyl)acrylic acid] | ≤ 100 | ≥ 40 |  | ++ (++ = a single % value ≧ 40%)
8 | CC/C(=C(/c1ccc(/C=C/C(=O)O)cc1)c1ccc2[nH]ncc2c1)c1cccc(Oc2ccccc2F)c1 [Compound 367, (E)-3-(4-((E)-2-(3-(2-Fluorophenoxy)phenyl)-1-(1H-indazol-5-yl)but-1-en-1-yl)phenyl)acrylic acid] | ≤ 100 | ≥ 40 | ≤ 100 | ++ (++ = a single % value ≧ 40%)
9 | O=C(O)/C=C/c1ccc(/C(=C(\c2ccc(F)cc2Cl)C2CCC2)c2ccc3scnc3c2)cc1 [Compound 278, (E)-3-(4-((E)-1-(Benzo[d]thiazol-5-yl)-2-(2-chloro-4-fluorophenyl)-2-cyclobutylvinyl)phenyl)acrylic acid] | ≤ 100 | ≥ 40 | ≤ 100 | ++ (++ = a single % value ≧ 40%)
10 | O=C(O)/C=C/c1ccc(/C(=C(\c2ccccc2Cl)C2CC2)c2cccc3[nH]ncc23)cc1 [Compound 71, (E)-3-(4-((E)-2-(2-Chlorophenyl)-2-cyclopropyl-1-(1H-indazol-4-yl)vinyl)phenyl)acrylic acid] | ≤ 100 | ≥ 40 | ≤ 100 | ++ (++ = a single % value ≧ 40%)
11 | CC/C(=C(/c1ccc(/C=C/C(=O)O)cc1)c1ccc2[nH]ncc2c1)c1ccc2c(c1)OCCO2 [Compound 250, (E)-3-(4-((E)-2-(2,3-Dihydrobenzo[b][1,4]dioxin-6-yl)-1-(1H-indazol-5-yl)but-1-en-1-yl)phenyl)acrylic acid] | ≤ 100 | ≥ 40 | ≤ 100 | ++ (++ = a single % value ≧ 40%)
12 | CC/C(=C(/c1ccc(/C=C/C(=O)O)cc1)c1ccc2[nH]c(=O)sc2c1)c1ccccc1 [Compound 75, (E)-3-(4-((E)-1-(2-Oxo-2,3-dihydrobenzo[d]thiazol-6-yl)-2-phenylbut-1-en-1-yl)phenyl)acrylic acid] | > 100 | ≥ 40 |  | ++ (++ = a single % value ≧ 40%)
13 | CC/C(=C(/c1ccc(/C=C/C(=O)O)cc1)c1ccc2[nH]ncc2c1)c1cnccc1C(F)(F)F [Compound 207, (E)-3-(4-((E)-1-(1H-Indazol-5-yl)-2-(4-(trifluoromethyl)pyridin-3-yl)but-1-en-1-yl)phenyl)acrylic acid] | ≤ 100 | ≥ 40 | ≤ 100 | ++ (++ = a single % value ≧ 40%)
14 | CC/C(=C(/c1ccc(/C=C/C(=O)O)cc1)c1ccc2[nH]ncc2c1)c1cnccc1C [Compound 218, (E)-3-(4-((E)-1-(1H-Indazol-5-yl)-2-(4-methylpyridin-3-yl)but-1-en-1-yl)phenyl)acrylic acid] | > 100 | ≥ 40 |  | ++ (++ = a single % value ≧ 40%)
15 | CC/C(=C(/c1ccc(/C=C/C(=O)O)cc1)c1ccc2c(c1)OCO2)c1ccccc1 [Compound 128, (E)-3-(4-((E)-1-(Benzo[d][1,3]dioxol-5-yl)-2-phenylbut-1-en-1-yl)phenyl)acrylic acid] | > 100 | ≥ 40 | > 100 | ++ (++ = a single % value ≧ 40%)

Continued, in another order:

Row | IC50 [1] [nM] | Emax [2] [%] | DC50 [2] [nM] | Compound | MCF7 Viability Assay Max Response [1]
16 | ≤ 100 | ≥ 40 | ≤ 100 | CC/C(=C(/c1ccc(/C=C/C(N)=O)cc1)c1ccc2[nH]ncc2c1)c1ccc(F)cc1Cl [Compound 417, (E)-3-(4-((E)-2-(2-Chloro-4-fluorophenyl)-1-(1H-indazol-5-yl)but-1-en-1-yl)phenyl)acrylamide] | ++ (++ = a single % value ≧ 40%)
17 | ≤ 100 | ≥ 40 | ≤ 100 | CCCCCS(=O)(=O)NC(=O)/C=C/c1ccc(/C(=C(/CC)c2ccc(F)cc2Cl)c2ccc3[nH]ncc3c2)cc1 [Compound 410, (E)-3-(4-((E)-2-(2-Chloro-4-fluorophenyl)-1-(1H-indazol-5-yl)but-1-en-1-yl)phenyl)-N-(pentylsulfonyl)acrylamide] | ++ (++ = a single % value ≧ 40%)
18 | ≤ 100 | ≥ 40 | ≤ 100 | CC/C(=C(/c1ccc(/C=C/c2nn[nH]n2)cc1)c1ccc2[nH]ncc2c1)c1ccccc1Cl [Compound 443, 5-((E)-1-(4-((E)-2-(2H-Tetrazol-5-yl)vinyl)phenyl)-2-(2-chlorophenyl)but-1-en-1-yl)-1H-indazole] | ++ (++ = a single % value ≧ 40%)
19 | ≤ 100 | ≥ 40 | ≤ 100 | CC/C(=C(/c1ccc(/C=C/C(=O)O)cc1)c1ccc2[nH]ncc2c1)c1cccc(Oc2ccc(C)nc2)c1 [Compound 382, (E)-3-(4-((E)-1-(1H-Indazol-5-yl)-2-(3-((6-methylpyridin-3-yl)oxy)phenyl)but-1-en-1-yl)phenyl)acrylic acid] | ++ (++ = a single % value ≧ 40%)
20 | ≤ 100 | ≥ 40 | ≤ 100 | CC/C(=C(/c1ccc(/C=C/C(=O)O)cc1)c1ccc2[nH]ncc2c1)c1cccc(Oc2ccccc2C)c1 [Compound 368, (E)-3-(4-((E)-1-(1H-Indazol-5-yl)-2-(3-(o-tolyloxy)phenyl)but-1-en-1-yl)phenyl)acrylic acid] | ++ (++ = a single % value ≧ 40%)
21 | ≤ 100 | ≥ 40 | ≤ 100 | CC/C(=C(/c1ccc(/C=C/c2noc(=O)[nH]2)cc1)c1ccc2scnc2c1)c1ccc(F)cc1Cl [Compound 436, 3-((E)-4-((E)-1-(Benzo[d]thiazol-5-yl)-2-(2-chloro-4-fluorophenyl)but-1-en-1-yl)styryl)-1,2,4-oxadiazol-5(4H)-one] | ++ (++ = a single % value ≧ 40%)
22 | > 100 | ≥ 40 | ≤ 100 | CC/C(=C(/c1ccc(/C=C/C(=O)O)cc1)c1ccc2[nH]ncc2c1)c1ccc(-c2cscn2)cc1 [Compound 388, (E)-3-(4-((E)-1-(1H-Indazol-5-yl)-2-(4-(thiazol-4-yl)phenyl)but-1-en-1-yl)phenyl)acrylic acid] | ++ (++ = a single % value ≧ 40%)
